Source: article PMC11345841, “Exploring 2-Sulfonylpyrimidine Warheads as Acrylamide Surrogates for Targeted Covalent Inhibition: A BTK Story” (Journal of Medicinal Chemistry, 2024)
Read-outs that look alike come from different tables or passages of the source.

What was measured:
Assay in all cases: KINOMEscan ScanTK
Format in all cases: binding
EPHB3 = target: T1, EPHB3 (Homo sapiens, UniProt P54753)
T1 construct: purchased Eurofins DiscoverX KINOMEscan (scanTK)
T1 sequence (P54753 34-998): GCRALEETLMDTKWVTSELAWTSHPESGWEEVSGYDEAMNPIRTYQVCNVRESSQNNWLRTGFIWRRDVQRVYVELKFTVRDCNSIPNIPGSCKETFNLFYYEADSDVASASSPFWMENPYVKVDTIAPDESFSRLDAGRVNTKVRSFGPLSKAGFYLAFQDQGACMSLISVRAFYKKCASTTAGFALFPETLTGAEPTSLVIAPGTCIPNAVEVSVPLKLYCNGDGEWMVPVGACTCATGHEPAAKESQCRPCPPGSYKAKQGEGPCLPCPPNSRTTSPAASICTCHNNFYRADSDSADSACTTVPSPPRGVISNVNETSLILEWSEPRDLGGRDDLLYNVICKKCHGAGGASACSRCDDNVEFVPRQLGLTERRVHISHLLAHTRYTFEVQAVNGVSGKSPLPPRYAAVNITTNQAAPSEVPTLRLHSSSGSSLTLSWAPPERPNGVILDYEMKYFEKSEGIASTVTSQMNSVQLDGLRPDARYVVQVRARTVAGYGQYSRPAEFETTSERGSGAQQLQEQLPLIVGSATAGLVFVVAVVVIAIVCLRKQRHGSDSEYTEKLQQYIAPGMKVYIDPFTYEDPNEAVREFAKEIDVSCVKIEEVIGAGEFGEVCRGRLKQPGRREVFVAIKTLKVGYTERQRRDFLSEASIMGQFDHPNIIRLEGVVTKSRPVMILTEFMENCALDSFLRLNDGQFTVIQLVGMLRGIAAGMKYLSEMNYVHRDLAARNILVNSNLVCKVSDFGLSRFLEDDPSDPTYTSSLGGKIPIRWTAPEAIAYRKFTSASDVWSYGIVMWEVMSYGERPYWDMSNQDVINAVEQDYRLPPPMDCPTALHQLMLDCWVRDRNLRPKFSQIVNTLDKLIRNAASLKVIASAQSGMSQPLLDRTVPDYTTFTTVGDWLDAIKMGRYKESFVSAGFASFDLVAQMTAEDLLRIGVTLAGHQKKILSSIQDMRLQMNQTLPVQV

CSF1R = target: T2, CSF1R (Homo sapiens, UniProt P07333)
T2 construct: purchased Eurofins DiscoverX KINOMEscan (scanTK)

MERTK = target: T3, MERTK (Homo sapiens, UniProt Q12866)
T3 construct: purchased Eurofins DiscoverX KINOMEscan (scanTK)
T3 sequence (Q12866 21-999): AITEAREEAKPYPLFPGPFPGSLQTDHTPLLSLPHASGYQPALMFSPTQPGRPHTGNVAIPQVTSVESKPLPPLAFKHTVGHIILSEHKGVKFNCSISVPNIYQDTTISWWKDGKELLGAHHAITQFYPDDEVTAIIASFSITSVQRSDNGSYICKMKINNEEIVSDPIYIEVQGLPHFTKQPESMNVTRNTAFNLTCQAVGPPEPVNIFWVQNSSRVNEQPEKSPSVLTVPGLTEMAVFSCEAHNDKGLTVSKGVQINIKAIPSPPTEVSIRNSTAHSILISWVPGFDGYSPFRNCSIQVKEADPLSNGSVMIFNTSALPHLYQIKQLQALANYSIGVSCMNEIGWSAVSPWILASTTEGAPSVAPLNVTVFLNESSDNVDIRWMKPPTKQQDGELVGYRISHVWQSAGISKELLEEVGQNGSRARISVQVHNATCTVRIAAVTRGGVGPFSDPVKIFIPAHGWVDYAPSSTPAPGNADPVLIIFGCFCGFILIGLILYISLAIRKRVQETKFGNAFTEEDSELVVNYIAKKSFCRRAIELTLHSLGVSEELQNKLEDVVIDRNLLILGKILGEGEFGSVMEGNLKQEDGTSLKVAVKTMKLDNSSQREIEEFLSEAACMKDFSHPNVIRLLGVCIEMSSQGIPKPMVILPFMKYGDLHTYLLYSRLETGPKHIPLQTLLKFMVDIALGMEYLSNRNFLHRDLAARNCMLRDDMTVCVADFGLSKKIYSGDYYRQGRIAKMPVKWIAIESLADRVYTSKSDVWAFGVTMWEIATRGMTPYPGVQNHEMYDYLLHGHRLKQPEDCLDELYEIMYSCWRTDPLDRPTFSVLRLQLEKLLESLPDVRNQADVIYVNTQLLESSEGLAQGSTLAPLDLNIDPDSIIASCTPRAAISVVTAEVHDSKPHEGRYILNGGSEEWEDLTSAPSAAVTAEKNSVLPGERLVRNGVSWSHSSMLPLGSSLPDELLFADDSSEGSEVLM

[1] = target: T4, ABL1(Y253F)-phosphorylated (Homo sapiens, UniProt P00519, Y253F)
T4 construct: purchased Eurofins DiscoverX KINOMEscan (scanTK)

IGF1R = target: T5, IGF1R (Homo sapiens, UniProt P08069)
T5 construct: purchased Eurofins DiscoverX KINOMEscan (scanTK)
T5 sequence (P08069 31-1367): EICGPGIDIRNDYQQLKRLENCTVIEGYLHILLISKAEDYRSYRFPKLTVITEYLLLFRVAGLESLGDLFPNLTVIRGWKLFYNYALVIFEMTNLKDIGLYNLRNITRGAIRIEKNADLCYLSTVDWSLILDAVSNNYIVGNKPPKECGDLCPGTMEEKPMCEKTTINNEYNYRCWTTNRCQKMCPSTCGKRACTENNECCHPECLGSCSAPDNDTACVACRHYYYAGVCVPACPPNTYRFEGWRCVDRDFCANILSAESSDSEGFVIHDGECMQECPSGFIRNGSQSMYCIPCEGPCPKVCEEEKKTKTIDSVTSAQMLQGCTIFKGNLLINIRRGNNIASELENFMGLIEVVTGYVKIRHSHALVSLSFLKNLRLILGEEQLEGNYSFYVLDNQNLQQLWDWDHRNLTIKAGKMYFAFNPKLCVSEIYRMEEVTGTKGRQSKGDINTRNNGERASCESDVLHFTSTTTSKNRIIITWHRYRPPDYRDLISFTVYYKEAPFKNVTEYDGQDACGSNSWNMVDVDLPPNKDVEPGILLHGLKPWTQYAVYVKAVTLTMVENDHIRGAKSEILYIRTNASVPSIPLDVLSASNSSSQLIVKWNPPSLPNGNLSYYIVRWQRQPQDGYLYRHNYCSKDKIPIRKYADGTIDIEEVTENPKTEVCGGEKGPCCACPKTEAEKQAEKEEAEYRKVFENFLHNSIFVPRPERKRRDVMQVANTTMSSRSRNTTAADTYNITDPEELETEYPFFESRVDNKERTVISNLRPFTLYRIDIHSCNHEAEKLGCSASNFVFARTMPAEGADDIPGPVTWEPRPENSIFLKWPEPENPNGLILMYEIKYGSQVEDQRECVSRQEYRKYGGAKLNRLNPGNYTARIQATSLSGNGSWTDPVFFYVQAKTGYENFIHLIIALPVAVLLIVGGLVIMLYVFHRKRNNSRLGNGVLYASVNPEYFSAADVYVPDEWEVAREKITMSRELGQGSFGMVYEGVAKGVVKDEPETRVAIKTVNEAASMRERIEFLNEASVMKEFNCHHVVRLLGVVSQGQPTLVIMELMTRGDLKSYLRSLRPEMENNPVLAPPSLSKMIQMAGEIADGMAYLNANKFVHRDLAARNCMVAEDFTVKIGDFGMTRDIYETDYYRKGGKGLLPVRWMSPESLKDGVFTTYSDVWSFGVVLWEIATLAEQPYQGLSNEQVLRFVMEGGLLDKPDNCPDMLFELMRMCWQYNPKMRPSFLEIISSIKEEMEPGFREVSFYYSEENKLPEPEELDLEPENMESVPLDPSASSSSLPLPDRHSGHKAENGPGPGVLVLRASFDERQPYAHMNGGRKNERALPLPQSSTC

T2 sequence (P07333 20-972): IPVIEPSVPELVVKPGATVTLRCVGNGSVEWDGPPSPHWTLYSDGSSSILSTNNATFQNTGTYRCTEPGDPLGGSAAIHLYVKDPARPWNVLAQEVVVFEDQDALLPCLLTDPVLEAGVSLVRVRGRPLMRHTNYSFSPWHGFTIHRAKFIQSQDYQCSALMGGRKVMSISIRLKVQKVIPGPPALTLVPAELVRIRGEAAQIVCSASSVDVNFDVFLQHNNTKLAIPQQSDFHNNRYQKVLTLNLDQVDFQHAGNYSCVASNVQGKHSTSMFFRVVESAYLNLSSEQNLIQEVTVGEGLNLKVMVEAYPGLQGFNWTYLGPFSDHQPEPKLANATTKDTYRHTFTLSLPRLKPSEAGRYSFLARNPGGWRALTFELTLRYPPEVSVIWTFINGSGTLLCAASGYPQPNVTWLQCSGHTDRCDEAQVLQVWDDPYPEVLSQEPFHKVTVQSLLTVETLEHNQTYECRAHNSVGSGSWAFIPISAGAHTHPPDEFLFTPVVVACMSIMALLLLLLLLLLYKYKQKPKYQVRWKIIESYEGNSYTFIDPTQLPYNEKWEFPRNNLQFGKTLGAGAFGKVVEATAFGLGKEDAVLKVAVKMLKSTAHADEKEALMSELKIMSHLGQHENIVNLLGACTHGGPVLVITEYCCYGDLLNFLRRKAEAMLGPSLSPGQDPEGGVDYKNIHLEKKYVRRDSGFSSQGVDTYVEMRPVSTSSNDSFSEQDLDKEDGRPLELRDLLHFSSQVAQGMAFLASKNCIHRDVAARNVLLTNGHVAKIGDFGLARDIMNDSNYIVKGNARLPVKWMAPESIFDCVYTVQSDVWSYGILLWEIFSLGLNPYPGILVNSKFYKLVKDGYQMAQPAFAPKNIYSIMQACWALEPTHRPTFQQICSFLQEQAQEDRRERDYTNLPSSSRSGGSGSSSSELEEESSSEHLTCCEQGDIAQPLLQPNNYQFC

Row | SMILES | remaining binding at 1 µM (EPHB3; @1000nM, read-out: %Control) [%] | remaining binding at 1 µM (EPHB3; read-out: %Control @1000nM) [%] | remaining binding at 1 µM (CSF1R; @1000nM, read-out: %Control) [%] | remaining binding at 1 µM (CSF1R; read-out: %Control @1000nM) [%] | remaining binding at 1 µM (MERTK; @1000nM, read-out: %Control) [%] | remaining binding at 1 µM (MERTK; read-out: %Control @1000nM) [%] | remaining binding at 1 µM ([1]; @1000nM, read-out: %Control) [%] | remaining binding at 1 µM ([1]; read-out: %Control @1000nM) [%] | remaining binding at 1 µM (IGF1R; @1000nM, read-out: %Control) [%] | remaining binding at 1 µM (IGF1R; read-out: %Control @1000nM) [%] | difference in %Control versus compound Ib at 1 µM (EPHB3; @1000nM) [%] | difference in %Control versus compound Ib at 1 µM (CSF1R; @1000nM) [%] | difference in %Control from compound Ib at 1 µM ([1]; @1000nM) [%] | % Control difference from reference compound Ib at 1 µM (IGF1R; @1000nM) [%]
1 | C=CC(=O)N1CCC[C@@H](n2nc(-c3ccc(Oc4ccccc4)cc3)c3c(N)ncnc32)C1 [Compound 1g, Ibrutinib, reference compound] | 98 | 98 | 80 | 80 | 38 | 38 | 77 | 77 | 96 | 96 | – | – | – | –
2 | Cc1cnc(S(C)(=O)=O)nc1N1CCCC(n2nc(-c3ccc(Oc4ccccc4)cc3)c3c(N)ncnc32)C1 (stereo not drawn) [Compound 8a, 1-(1-(5-Methyl-2-(methylsulfonyl)pyrimidin-4-yl)piperidin-3-yl)-3-(4-phenoxyphenyl)-1H-pyrazolo[3,4-d]pyrimidin-4-amine] | 100 | 100 | 92 | 92 | 60 | 60 | 83 | 83 | 100 | 100 | 2 | 12 | 6 | 4
3 | COC(=O)c1cnc(S(C)(=O)=O)nc1N1CCCC(n2nc(-c3ccc(Oc4ccccc4)cc3)c3c(N)ncnc32)C1 (stereo not drawn) [Compound 8b, Methyl 4-(3-(4-Amino-3-(4-phenoxyphenyl)-1H-pyrazolo[3,4-d]pyrimidin-1-yl)piperidin-1-yl)-2-(methylsulfonyl)pyrimidine-5-carboxylate] | 97 | 97 | 92 | 92 | 67 | 67 | 78 | 78 | 94 | 94 | -1 | 12 | 1 | -2
4 | CCOC(=O)c1cnc(S(C)(=O)=O)nc1N1CCC[C@@H](n2nc(-c3ccc(Oc4ccccc4)cc3)c3c(N)ncnc32)C1 [Compound 8c, Ethyl (R)-4-(3-(4-Amino-3-(4-phenoxyphenyl)-1H-pyrazolo[3,4-d]pyrimidin-1-yl)piperidin-1-yl)-2-(methylsulfonyl)pyrimidine-5-carboxylate] | 78 | 78 | 96 | 96 | 71 | 71 | 81 | 81 | 92 | 92 | -20 | 16 | 4 | -4
5 | CNC(=O)c1cnc(S(C)(=O)=O)nc1N1CCCC(n2nc(-c3ccc(Oc4ccccc4)cc3)c3c(N)ncnc32)C1 (stereo not drawn) [Compound 8d, 4-(3-(4-Amino-3-(4-phenoxyphenyl)-1H-pyrazolo[3,4-d]pyrimidin-1-yl)piperidin-1-yl)-N-methyl-2-(methylsulfonyl)pyrimidine-5-carboxamide] | 100 | 100 | 99 | 99 | 49 | 49 | 80 | 80 | 100 | 100 | 2 | 19 | 3 | 4
